From US20180344735A1, “USE OF sGC STIMULATORS FOR THE TREATMENT OF GASTROINTESTINAL SPHINCTER DYSFUNCTION” (Ironwood Pharmaceuticals, Inc., priority 2015, published 2018)
Each block holds one compound with its values, some of them ahead of it.

Key:
[1] = test system: human lower esophageal sphincter (LES) tissues; test: Ex vivo relaxation of carbachol-pre-contracted human lower esophageal sphincter (LES) muscle strips, organ bath; assay type: cell-based
Description: The objective of this study was to determine the relaxation effects of two sGC stimulators, Compound A and Compound B (depicted below) on human lower esophageal sphincter (LES) tissues ex vivo. Human lower esophageal sphincter muscle strips were mounted in a wire myograph apparatus and pre-contracted with carbachol (Cch). A cumulative concentration response curve (CCRC) of Compound A and Compound B was then performed on the tissues. The concentration response was performed with the compounds alone, and/or with the test compounds in the presence of a fixed concentration of the NO donor DETA-NONOate.
Compound A and Compound B were stored at room temperature. On each experimental day, 10 mM stock of the test compound was prepared in DMSO. Further dilutions up to 0.1 μM were made serially in ethanol, and subsequently in distilled water, depending on solubility of the compounds in those solvents. Compound A and Compound B Vehicle solutions were made by following the same serial dilution methods
DETA-NONOate was stored at −20° C. On each experimental day, a stock solution of 100 mM was prepared in Phosphate Buffered Saline (PBS), pH 8 (Boston Bioproducts). A 1:10 dilution from the stock was made in PBS pH 8, to obtain a concentration of 10 mM.
SNP was stored at −20° C. On each experimental day, a stock solution of 100 mM was prepared in distilled water. 25 μl of the 100 mM stock was added to each bath for a final concentration of 100 μM in bath.
Tissues were obtained postmortem. Only macroscopically normal tissue that was obtained from donors with no known recent history of gastrointestinal disease.
Human LES mucosa-free muscle strips, of approximately 15 mm in length and 2-3 mm width were dissected free from surrounding tissue and mounted on tissue posts in 25 mL organ baths (Panlab 16 channel automated organ bath and thermostatic controller) containing physiological saline solution (PSS; composition: 119.0 mM NaCl, 4.70 mM KCl, 1.20 mM MgSO4, 24.9 mM NaHCO3, 1.20 mM KH2PO4, 2.50 mM CaCl2, 11.1 mM glucose), aerated with 95% O2/5% CO2, warmed and maintained at approximately 37° C. The PSS solution was supplemented with 1 μM indomethacin. The LES strips were mounted on the tissue posts and allowed to equilibrate for approximately 30 minutes.
The LES strips were set to a tension of 2.0 g+0.2 g. Baths were washed approximately every 15 minutes over a 60-minute period, with re-tensioning to 2.0±0.2 g if tension dropped below 1.0 g.
The viability of the LES muscle strips was tested by application of 80 mM KCl, looking for maximum contractility response. Upon plateau all baths were washed three times with PSS and the tension was allowed to return to baseline levels. The strips that responded to the KCl functional check were used for CCh-induced contractions.
For each one of compounds A and B, experiments were conducted with LES tissues from two human donors on two separate days.
Upon stabilization of baseline tension, each of the following experiments was allocated to one bath such that 9 or more muscle strips were set up for each compound on each experimental day.
Compound A Experiments with tissues from Donor 1: • 1. CCRC to DETA-NO vehicle • 2. CCRC to Compound A vehicle • 3. CCRC to DETA-NO • 4. CCRC to DETA-NO • 5. CCRC to Compound A • 6. CCRC to Compound A • 7. Since DETA-NO relaxed LES, a CCRC to Compound A was performed in the presence of DETA-NO at a sub-threshold concentration (1 μM, determined in conditions 3 and 4) • 8. CCRC to Compound A in the presence of DETA-NO ([…]) • 9. CCRC to Compound A vehicle in the presence of DETA-NO ([…]).
Compound A Experiments with tissues from Donor 2: • 1. CCRC to Compound A vehicle • 2. CCRC to Compound A vehicle • 3. CCRC to Compound A vehicle in the presence of 10 μM DETA-NO • 4. CCRC to Compound A vehicle in the presence of 30 μM DETA-NO • 5. CCRC to Compound A • 6. CCRC to Compound A • 7. CCRC to Compound A in the presence of 10 μM DETA-NO • 8. CCRC to Compound A in the presence of 10 μM DETA-NO • 9. […]

achalasia patients = settings: report from 2000; cited from earlier work
[2] = 10 μM compound in the presence of 30 μM DETA-NO
[3] = in the presence of 30 μM DETA-NO

Compound: OC(CNc1nc(-c2cc(-c3ccon3)n(Cc3ccccc3F)n2)ncc1F)(C(F)(F)F)C(F)(F)F [Compound A]
relaxation ([1]; 10 μM compound in the presence of 1 μM DETA-NO, donor 1): 16%
maximum relaxation ([1]; 10 μM compound in the presence of 10 μM DETA-NO, donor 2, N=4): 38%
maximum relaxation ([1]; 10 μM compound, absence of NO, first donor, N=2): 49%
maximum relaxation ([1]; 10 μM compound, absence of NO, second donor, N=2): 31%
maximum relaxation ([1]; in the presence of 30 μM DETA-NO, donor 2, N=3): 51%

EC50 [1, 3]: 1700 nM
Compound: NC(=O)[C@](O)(CNc1nc(-c2cc(-c3ccon3)n(Cc3ccccc3F)n2)ncc1F)C(F)(F)F [Compound B]
maximum relaxation relative to isoprenaline [1, 2]: 77%
maximum relaxation relative to isoprenaline ([1]; 10 μM compound, absence of NO, N=8): 47%

EC50 [1, 3]: 500 nM
Compound: COC(=O)N(C)c1c(N)nc(-c2nn(Cc3ccccc3F)c3ncccc23)nc1N [Compound C]
maximum relaxation relative to isoprenaline [1, 2]: 90%

EC50 [1, 3]: 1600 nM
Compound: C[C@@]1(C(F)(F)F)C(=O)Nc2nc(-c3nn(Cc4ncccc4F)c4ncc(F)cc34)nc(NCCC(F)(F)F)c21 [Compound D]
maximum relaxation relative to isoprenaline [1, 2]: 80%

EC50 [1, 3]: 530 nM
Compound: Fc1ccccc1Cn1nc(-c2nc(C(F)(F)F)n[nH]2)c2cccnc21 [Compound E]
maximum relaxation relative to isoprenaline [1, 2]: 89%

Compound: NCCN(CCN)/[N+]([O-])=N/O [DETA-NO, diethylenetriamine/NO, reference compound]
mean percentage relaxation ([1]; 10 μM DETA-NO alone, second donor, N=5): 8%
mean relaxation relative to isoprenaline ([1]; 30 μM DETA-NO alone, Compound B experiments, N=12): 7.6%
mean percentage relaxation ([1]; 30 μM DETA-NO alone, second donor, N=4): 13%

Compound: CCCc1nn(C)c2c(=O)[nH]c(-c3cc(S(=O)(=O)N4CCN(C)CC4)ccc3OCC)nc12 [sildenafil]
effect on LES pressure (achalasia patients): able to reduce LES pressure
effect on clinical symptoms (achalasia patients): clinical symptoms were not improved
